Measured values: the NIST ThermoML archive (doi:10.1016/j.jct.2016.07.040)

Conditions: Crystal; for vapor or sublimation pressure: Calculated from knudsen effusion weight loss

[Np+4].[O-2].[O-2] [neptunium(IV) oxide]
Conditions	mass density [kg/m3]
295 K, 101.33 kPa, X-ray diffraction	11140

Conditions	vapor or sublimation pressure [kPa]
2054.9 K	3.295e-05
2056.2 K	3.366e-05
2057.9 K	3.51e-05
2060.1 K	3.662e-05
2062.3 K	3.796e-05
2064.8 K	3.874e-05
2067.1 K	4.025e-05
2069.1 K	4.246e-05
2071.4 K	4.393e-05
2073.9 K	4.623e-05
2076.6 K	4.712e-05
2078.6 K	4.956e-05
2081.3 K	5.123e-05
2083.9 K	5.383e-05
2086.1 K	5.495e-05
2088.4 K	5.784e-05
2090.9 K	5.955e-05
2093.2 K	6.187e-05
2095.7 K	6.433e-05
2098.6 K	6.692e-05
2100.8 K	6.877e-05
2103.4 K	7.176e-05
2105.9 K	7.462e-05
2108.1 K	7.729e-05
2111.2 K	8.054e-05
2113.1 K	8.434e-05
2115.9 K	8.748e-05
2118.1 K	9.035e-05
2120.3 K	9.314e-05
2122.9 K	9.644e-05
2125.2 K	9.94e-05
2127.9 K	0.0001045
2130.5 K	0.0001097
2132.7 K	0.0001123
2135.3 K	0.0001157
2137.4 K	0.0001217
2139.9 K	0.0001239
2142.7 K	0.0001288
2145.2 K	0.0001332
2147.5 K	0.0001386
2149.8 K	0.0001358
2150.2 K	0.0001442
2151.3 K	0.0001375
2152.2 K	0.0001394
2152.6 K	0.0001498
2152.8 K	0.0001433
2154.4 K	0.0001447
2154.9 K	0.0001542
2155.9 K	0.0001583
2156 K	0.0001482
2157.3 K	0.0001517
2158.4 K	0.0001543
2160.3 K	0.0001598
2161.7 K	0.0001597
2162.9 K	0.0001642
2164.5 K	0.0001713
2166.2 K	0.0001748
